Like-named read-outs stand apart in the source and are kept apart here. Blank lines part the entries; values can stand above or below the compound they belong to.
Tests used:
[1] = system: HuPrime pancreatic cancer xenograft model PA1222; assay: In vivo pharmacodynamic experiment in HuPrime pancreatic cancer PA1222 PDX model; settings: for Tumor volume (mm^3) (x ± S): Group 2, 80 mg/kg i.p.
H460 cancer cells = assay: Inhibition of H460 cancer cells in the presence or absence of AKR1C3 inhibitor AST-3021 (section 2.1); format: cell-based, human; settings: for IC50: Homo sapiens
Protocol: The experimental scheme was as follows: • 1) H460 cell suspension was added to a 96-well plate with 100 μL per well at a cell density of 2000/well. • 2) Cells were incubated in an incubator of 37° C., 5% CO2 overnight. • 3) Compound treatment
Combined administration: 24 hours after cell plating, 98 μL of growth medium per well was added. 1 μL of AST-3021 was added to each well (final concentration 3 μM), and the plate was shaken gently to ensure even mixing, and then placed into an incubator; after 2 hours, 1 μL of the test compound at different concentrations was added, and the plate was shaken gently to ensure even mixing, and then placed into an incubator of 37° C., 5% CO2.
Administration of the drug alone: 24 hours after cell plating, 99 μL of growth medium per well was added.
In order to further verify that the compound was activated specifically by human AKR1C3 (aldosterone reductase family 1 member C3), the compound was added following the pretreatment of cells with the specific AKR1C3 enzyme inhibitor AST-3021 (3 μM), and the effect of the presence of AST-3021 on the proliferation of H460 cancer cells was tested
IC50 data of inhibitory effect of the compounds gemcitabine and H11 on H460 cancer cells in the presence or absence of the AKR1C3 inhibitor AST-3021 is shown in Table 2 and Table 3.

[2] = intraperitoneal injection, once every 3 days, for four consecutive doses; literature; cited from earlier work
[3] = system: H460 cell line with high expression of AKR1C3 enzyme; settings: cited from earlier work
[4] = Plasma stability in rat plasma; settings: for Remaining percentage (%): rat plasma
Protocol: 1 mM working solution of the test compound was prepared in DMSO. 1 mM working solution of propantheline was prepared in acetonitrile. 1 mM working solution of lovastatin (mevinolin) was prepared in DMSO. Propantheline was used as a positive control for human, monkey, dog, and mouse plasma stability tests. Lovastatin was a positive control for rat plasma stability test.
• A. 398 μL of plasma per well was added to the culture plate, and the plate was preheated at 37° C. for 15 minutes. • B. After preincubation, 2 μL of working solution (test solution or control solution) was added to the 398 μL plasma mentioned above, resulting in a final concentration of 5 μM. The final concentration of organic solvents was 0.5%. The test was conducted in duplicate. • C. The reaction sample was incubated at 37° C. • D. 50 μL was extracted from the reaction sample at 0, 15, 30, 60, and 120 minutes, respectively. […] 100 μL of supernatant was taken and transferred to a new plate. The supernatant was diluted with ultrapure water according to the LC-MS signal response and peak shape.
Samples were analyzed with LC-MS/MS. All calculations were conducted using Microsoft Excel. The peak area ratio was determined from the extracted ion chromatogram. • (1) The percentage of the remaining compound at each time point was calculated with the following formula: […]
wherein the slope value k was determined by linear regression of the natural logarithm of the remaining percentage of the parent drug vs. incubation time curve.

[5] = system: H460 non-small cell lung cancer human tumor cell line; assay: In vitro human tumor cell line cytotoxicity (proliferation) assay on H460, CTG, with or without AST-3021; format: cell-based; settings: for IC50: Homo sapiens
Protocol: In vitro human tumor cell line cytotoxicity assay was used.
In vitro proliferation data on the H460 non-small cell lung cancer human tumor cell line (cell line which highly expresses AKR1C3) is reported below in the compound table.
IC50 values were obtained with the following steps:
Specifically, exponentially growing cells were seeded at a density of 2×10^3 cells/100 μL/well in a 96-well plate and incubated at 37° C. in 5% CO2, 95% air and 100% relative humidity for 24 hours. The test compound was administered alone: 24 hours after cell plating, the compound acted alone, 99 μL of growth medium per well was added, and 1 μL of the compound prepared at 200× was added, and the plate was shaken gently to ensure even mixing, then placed into an incubator of 37° C., 5% CO2. After further cultivation for 72 hours, the number of live cells was detected using CTG. The CTG detection method was as follows: the cell plate to be tested was placed at room temperature to equilibrate for 30 minutes, and 100 μL of medium per well was discarded. 25 μL of CTG reagent (CellTiter-Glo® kit) per well was added, and the plate was placed in a high-speed shaker to oscillate for 2 minutes, and placed at room temperature in the dark for 30 minutes. The chemiluminescence signal value was read using a multimode microplate reader, with a read time of 1000 ms.
Similarly, in order to further verify that the compounds were activated by human AKR1C3 (aldosterone reductase family 1 member C3), the effect of some of the compounds on the proliferation of H460 cancer cells was tested with pretreatment with a specific AKR1C3 enzyme inhibitor AST-3021 (3 μM). The detailed experimental procedure was as follows: 24 hours after cell plating, 98 μL of growth medium per well was added, and 1 μL of 200×compound AST-3021 was added to each well, and the plate was shaken gently to ensure even mixing, and then placed into an incubator; after 2 hours, 1 μL of the test compound prepared at 200× was added, and the plate was shaken gently to ensure even mixing and then laced into an incubator of 37° C., 5% CO2. The inhibitor used was compound 36, i.e.
in Flanagan et al., Bioorganic and Medicinal Chemistry (2014), page 962-977, and is referred to as AST-3021 in this invention. The values measured in this case are values corresponding to +AST-3021 IC50 (nM) in Table 1.
The value corresponding to +AST-3021 IC50 (nM) divided by the value corresponding to IC50 (nM) is the specific activation ratio. The relative magnitude of the specific activation ratio can be used to evaluate whether this compound is a cytotoxic compound activated by human AKR1C3 (aldosterone reductase family 1 member C3): when the specific activation ratio is less than 1, it is considered that the compound is not activated by human AKR1C3 (aldosterone reductase family 1 member C3); when the specific activation ratio is greater than 1, it is considered that the compound is activated by human AKR1C3 (aldosterone reductase family 1 member C3), and the higher the value, the higher the activation degree and the selectivity of AKR1C3.

[6] = Plasma stability in human plasma; format: in vitro ADME
Protocol: (§1) The final concentration of organic solvents was 0.5%. The test was conducted in duplicate. • C.
(§2) Samples were analyzed with LC-MS/MS. All calculations were conducted using Microsoft Excel.

[7] = Plasma stability in monkey plasma; format: in vitro ADME
Protocol: as §1, §2

[8] = Plasma stability in dog plasma; format: in vitro ADME
Protocol: as §1, §2

[9] = Plasma stability in mouse plasma; format: in vitro ADME
Protocol: as §1, §2

[10] = Group 2, 80 mg/kg i.p. Q3D×4, Day 32
[11] = NCI-H460, compound alone, 72 hours, read-out: IC50
[12] = NCI-H460, pretreatment with AKR1C3 inhibitor AST-3021 (3 μM), read-out: +AST-3021 IC50

Structure (SMILES): Nc1ccn([C@@H]2O[C@H](CO)[C@@H](O)C2(F)F)c(=O)n1 [gemcitabine]
Relative tumor volume (x ± S) [1, 10]: 0.06 ± 0.04 | T/C (%) [1, 10]: 0.97% | TGI (%) [1, 10]: 99.03% | complete tumor inhibition rate [1, 10]: 60% | Tumor volume (x ± S) ([1]; Group 2, 80 mg/kg i.p. Q3D×4, Day 32, mean ± standard error): 6.79 ± 4.33 | Tumor volume (mm^3) (x ± S) ([1]; day 0): 102.95 mm^3 | Tumor volume (mm^3) (x ± S) ([1]; day 4): 104.07 mm^3 | Tumor volume (mm^3) (x ± S) ([1]; day 7): 74.43 mm^3 | Tumor volume (mm^3) (x ± S) ([1]; day 11): 38.92 mm^3 | Tumor volume (mm^3) (x ± S) ([1]; day 14): 24.66 mm^3 | Tumor volume (mm^3) (x ± S) ([1]; day 18): 17.66 mm^3 | Tumor volume (mm^3) (x ± S) ([1]; day 21): 12.13 mm^3 | Tumor volume (mm^3) (x ± S) ([1]; day 25): 10.23 mm^3 | Tumor volume (mm^3) (x ± S) ([1]; day 28): 7.97 mm^3 | Tumor volume (mm^3) (x ± S) ([1]; day 32): 6.79 mm^3 | Specific activation ratio (H460 cancer cells; H460): 1.08 | IC50 (H460 cancer cells; NCI-H460, 72 h, H460, 72 hours, read-out: IC50 (nmol/L) AST-3021 not added): 13.2 nmol/L | IC50 (H460 cancer cells; NCI-H460, H460, AST-3021 3 μM, read-out: IC50 (nmol/L) AST-3021 added): 14.2 nmol/L | MTD [2]: 120 mg/kg

Structure (SMILES): CCN(CCCCBr)P(=O)(OCc1ccc([N+](=O)[O-])c(Oc2ccc(-c3ccccc3)cc2)c1)OCC1OC(n2ccc(N)nc2=O)C(F)(F)C1O (stereo not drawn) [TH3057]
IC50 ([3]; with addition of AKR1C3 enzyme inhibitor): 5 µM | IC50 ([3]; without AKR1C3 enzyme inhibitor): 0.2 µM

Structure (SMILES): CC[C@H](C)C(=O)O[C@H]1C[C@@H](C)C=C2C=C[C@H](C)[C@H](CC[C@@H]3C[C@@H](O)CC(=O)O3)[C@H]21 [lovastatin, reference compound]
Remaining percentage (%) ([4]; 0 min, 5 μM, 37° C.): 100.00% | Remaining percentage (%) ([4]; 15 min): 5.27% | Remaining percentage (%) ([4]; 30 min): 0.52% | Remaining percentage (%) ([4]; 60 min): 0.45% | Remaining percentage (%) ([4]; 120 min): 0.34% | t1/2 ([4]; rat, plasma): 3.53 min

Structure (SMILES): CC(C)NP(=O)(OCc1ccc([N+](=O)[O-])c(Oc2ccc(-c3ccc(Cl)cc3)c(F)c2)c1)OCC1OC(n2ccc(N)nc2=O)C(F)(F)C1O (stereo not drawn) [Compound H42]
specific activation ratio (+AST-3021 IC50/IC50) [5]: 333.5 | IC50 [5, 11]: 0.0571 µM | IC50 [5, 12]: 19 µM

Structure (SMILES): CC(C)NP(=O)(OCc1ccc([N+](=O)[O-])c(Oc2ccc(-c3cccc(F)c3)cc2)c1)OCC1OC(n2ccc(N)nc2=O)C(F)(F)C1O (stereo not drawn) [Compound H44]
specific activation ratio (+AST-3021 IC50/IC50) [5]: 336.1 | IC50 [5, 11]: 0.0513 µM | IC50 [5, 12]: 17.3 µM

Structure (SMILES): CC(C)NP(=O)(OCc1ccc([N+](=O)[O-])c(Oc2cccc(C(=O)N3CCCCC3)c2)c1)OCC1OC(n2ccc(N)nc2=O)C(F)(F)C1O (stereo not drawn) [Compound H35]
specific activation ratio (+AST-3021 IC50/IC50) [5]: 8.6 | IC50 [5, 11]: 0.454 µM | IC50 [5, 12]: 3.9 µM

Structure (SMILES): CCNP(=O)(OCc1ccc([N+](=O)[O-])c(Oc2ccc(C(=O)N3CCC(C(F)(F)F)CC3)cc2)c1)OCC1OC(n2ccc(N)nc2=O)C(F)(F)C1O (stereo not drawn) [Compound H14]
specific activation ratio (+AST-3021 IC50/IC50) [5]: 1.9 | IC50 [5, 11]: 1.77 µM | IC50 [5, 12]: 3.3 µM

Structure (SMILES): CC(C)CNP(=O)(OCc1ccc([N+](=O)[O-])c(Oc2ccc(C(F)(F)F)cc2)c1)OCC1OC(C2N=CC(N)=NC2=O)C(F)(F)C1O (stereo not drawn) [Compound H10]
specific activation ratio (+AST-3021 IC50/IC50) [5]: 27.7 | IC50 [5, 11]: 0.105 µM | IC50 [5, 12]: 2.9 µM

Structure (SMILES): CCNP(=O)(OCc1ccc([N+](=O)[O-])c(Oc2ccc(-c3ccc(F)cc3)c(F)c2)c1)OCC1OC(n2ccc(N)nc2=O)C(F)(F)C1O (stereo not drawn) [Compound H2]
specific activation ratio (+AST-3021 IC50/IC50) [5]: 47.8 | IC50 [5, 11]: 0.0199 µM | IC50 [5, 12]: 0.951 µM

Structure (SMILES): CCNP(=O)(OCc1ccc([N+](=O)[O-])c(Oc2ccc(C(=O)N3CCCCC3)cc2)c1)OCC1OC(n2ccc(N)nc2=O)C(F)(F)C1O (stereo not drawn) [Compound H13]
specific activation ratio (+AST-3021 IC50/IC50) [5]: 9.4 | IC50 [5, 11]: 0.393 µM | IC50 [5, 12]: 3.68 µM

Structure (SMILES): NC1=NC(=O)C(C2OC(COP(=O)(NCc3ccccc3)OCc3ccc([N+](=O)[O-])c(Oc4ccc(-c5ccc(F)cc5)c(F)c4)c3)C(O)C2(F)F)N=C1 (stereo not drawn) [Compound H8]
specific activation ratio (+AST-3021 IC50/IC50) [5]: 44.8 | IC50 [5, 11]: 0.0675 µM | IC50 [5, 12]: 3.02 µM

Remaining percentage (%) ([6]; 0 min, 5 μM, 37° C.): 100.00% | Remaining percentage (%) ([6]; 15 min): 81.24% | Remaining percentage (%) ([6]; 30 min): 59.99% | Remaining percentage (%) ([6]; 60 min): 32.76% | Remaining percentage (%) ([6]; 120 min): 7.75% | half-life at 5 µM ([6]; human): 36.6 min | Remaining percentage (%) ([7]; 0 min, 5 μM, 37° C.): 100.00% | Remaining percentage (%) ([7]; 15 min): 90.53% | Remaining percentage (%) ([7]; 30 min): 77.57% | Remaining percentage (%) ([7]; 60 min): 70.39% | Remaining percentage (%) ([7]; 120 min): 49.22% | half-life at 5 µM ([7]; monkey): 121 min | Remaining percentage (%) ([8]; 0 min, 5 μM, 37° C.): 100.00% | Remaining percentage (%) ([8]; 15 min): 101.04% | Remaining percentage (%) ([8]; 30 min): 87.98% | Remaining percentage (%) ([8]; 60 min): 85.64% | Remaining percentage (%) ([8]; 120 min): 66.64% | half-life at 5 µM ([8]; dog): 203 min | half-life at 5 µM [9]: 21.8 min | Remaining percentage (%) ([9]; 0 min, 5 μM, 37° C.): 100.00% | Remaining percentage (%) ([9]; 15 min): 69.89% | Remaining percentage (%) ([9]; 30 min): 43.11% | Remaining percentage (%) ([9]; 60 min): 15.28% | Remaining percentage (%) ([9]; 120 min): 2.03%
Structure (SMILES): CC(C)[N+](C)(CCOC(=O)C1c2ccccc2Oc2ccccc21)C(C)C [propantheline, reference compound]
